Measured values from patent US20230131427A1, “FUNGICIDAL COMPOSITIONS” (SYNGENTA CROP PROTECTION AG, priority 2020, published 2023).
Several values for one entry are separate records, joined by “and”; a condition that tells them apart may be missing. Equal values may be shown once. Read-outs that look alike come from different tables or passages of the source.

Assays:
[1] = system: Puccinia recondita f. sp. tritici; test: Puccinia recondita f. sp. tritici / wheat / leaf disc preventative (brown rust); assay type: in vivo; conditions: foliar, vs untreated control
Method: (§1) Leaf disks or leaf segments of various plant species are cut from plants grown in a greenhouse. The cut leaf disks or segments are placed in multiwell plates (24-well format) onto water agar. The leaf disks are sprayed with a test solution before (preventative) or after (curative) inoculation. Compounds to be tested are prepared as DMSO solutions (max. 10 mg/mL) which are diluted to the appropriate concentration with 0.025% Tween20 just before spraying. The inoculated leaf disks or segments are incubated under defined conditions (temperature, relative humidity, light, etc.) according to the respective test system. A single evaluation of disease level is carried out 3 to 14 days after inoculation, depending on the pathosystem. Percent disease control relative to the untreated check leaf disks or segments is then calculated.
Wheat leaf segments cv. Kanzler are placed on agar in multiwell plates (24-well format) and sprayed with the formulated test compound diluted in water. The leaf disks are inoculated with a spore suspension of the fungus 1 day after application. The inoculated leaf segments are incubated at 19° C. and 75% rh under a light regime of 12 h light/12 h darkness in a climate cabinet and the activity of a compound is assessed as percent disease control compared to untreated when an appropriate level of disease damage appears in untreated check leaf segments (7-9 days after application).

[2] = system: Phakopsora pachyrhizi; test: Phakopsora pachyrhizi / soybean / leaf disc preventative (Asian soybean rust); assay type: in vivo; conditions: foliar, 288 h, vs untreated control
Method: as §1
Soybean leaf disks are placed on agar in multiwell plates (24-well format) and sprayed with test solutions. After drying, the leaf disks are inoculated with a spore suspension of the fungus. After appropriate incubation the activity of a compound is assessed approx.12 dpi (days after inoculation) as preventive fungicidal activity.

[3] = system: Glomerella lagenarium (Colletotrichum lagenarium); test: Glomerella lagenarium (Colletotrichum lagenarium) liquid culture / cucumber / preventative (anthracnose); assay type: cell-based; conditions: Colletotrichum orbiculare, vs untreated control
Method: Mycelia fragments or conidia suspensions of a fungus prepared either freshly from liquid cultures of the fungus or from cryogenic storage, are directly mixed into nutrient broth. DMSO solutions of the test compound (max. 10 mg/mL) are diluted with 0.025% Tween20 by a factor of 50 and 10 μl of this solution is pipetted into a microtiter plate (96-well format). The nutrient broth containing the fungal spores/mycelia fragments is then added to give an end concentration of the tested compound. The test plates are incubated in the dark at 24° C. and 96% relative humidity. The inhibition of fungal growth is determined photometrically after 2 to 7 days, depending on the pathosystem, and percent antifungal activity relative to the untreated check is calculated.
Conidia of the fungus from cryogenic storage are directly mixed into nutrient broth (PDB potato dextrose broth). After placing a (DMSO) solution of test compound into a microtiter plate (96-well format), the nutrient broth containing the fungal spores is added.

[4] = system: Puccinia recondita f. sp. tritici; test: Puccinia recondita f. sp. tritici / wheat / leaf disc curative (brown rust); assay type: in vivo; conditions: foliar, vs untreated control
Method: Leaf disks or leaf segments of various plant species are cut from plants grown in a greenhouse. The cut leaf disks or segments are placed in multiwell plates (24-well format) onto water agar. The leaf disks are sprayed with a test solution before (preventative) or after (curative) inoculation. […] The inoculated leaf disks or segments are incubated under defined conditions (temperature, relative humidity, light, etc.) according to the respective test system. […] Percent disease control relative to the untreated check leaf disks or segments is then calculated. Wheat leaf segments cv. Kanzler are placed on agar in multiwell plates (24-well format). The leaf segments are inoculated with a spore suspension of the fungus. […] The formulated test compound diluted in water is applied 1 day after inoculation.

[5] = system: Septoria tritici; test: Example B3: mixtures, preventative activity against Septoria tritici (leaf blotch), liquid culture; assay type: cell-based; conditions: component A alone
Description: (§2) This occurs whenever the action of an active ingredient combination is greater than the sum of the actions of the individual components. The action to be expected E for a given active ingredient combination obeys the so-called COLBY formula and can be calculated as follows (COLBY, S. R. “Calculating synergistic and antagonistic responses of herbicide combination”. Weeds, Vol. 15, pages 20-22; 1967):
(§3) If the action actually observed (O) is greater than the expected action (E), then the action of the combination is super-additive, i.e. there is a synergistic effect. In mathematical terms, synergism corresponds to a positive value for the difference of (O-E). In the case of purely complementary addition of activities (expected activity), said difference (O-E) is zero. A negative value of said difference (O-E) signals a loss of activity compared to the expected activity.
(§4) Conidia of the fungus from cryogenic storage were directly mixed into nutrient broth (PDB potato dextrose broth). A DMSO solution of the test compounds was placed into a microtiter plate (96-well format) and the nutrient broth containing the fungal spores was added to it.
(§5) Fungicidal activity was evaluated on a 100-0 scale (100=no disease growth; 0=well completely covered by mycelium).

[6] = system: Phakopsora pachyrhizi; test: Example B5: preventative activity against Phakopsora pachyrhizi (soybean rust), whole soybean plants sprayed, leaf disks inoculated; assay type: in vivo; conditions: applied alone
Method: Whole soybean plants are treated with the recited active ingredients 4 weeks after planting. 1 day after spraying leaf disks are cut from the first trifoliate leaf. Five repetitions at each rate are conducted. The leaf disks are inoculated with Phakopsora pachyrhizi (Asian soybean rust) one day after treatment.
Evaluation of the leaf disks is conducted 11 to 14 days after inoculation and the activity is derived from the relation of the treated vs untreated, infested check (100=no disease, no damage to the leaf, 0=high infestation, leaf damaged heavily). The rates of the active ingredients used are given in the tables as g active ingredient (a.i.)/ha.

[7] = system: Septoria glycines; test: Example B2: mixtures, preventative activity against Septoria glycines (brown spot), liquid culture; assay type: cell-based; conditions: Septoria glycines, component A alone
Description: as §2, §3
as §4, with “fungus harvested” for “fungus”, “a fresh culture grown on artificial media,” for “cryogenic storage”
as §5

[8] = system: Mycosphaerella arachidis syn. Cercospora arachidicola; test: Example B4: mixtures, preventative activity against Mycosphaerella arachidis syn. Cercospora arachidicola (brown leaf spot of peanut), liquid culture; assay type: cell-based; conditions: Mycosphaerella arachidis, component A alone
Description: as §2, §3, §4
Cercospora arachidicola (Brown leaf spot of peanut). Fungicidal activity was evaluated on a 100-0 scale (100=no disease growth; 0=well completely covered by mycelium).

[9] = system: Glomerella lagenarium syn. Colletotrichum lagenarium; test: Example B1: mixtures, preventative activity against Glomerella lagenarium syn. Colletotrichum lagenarium, liquid culture; assay type: cell-based; conditions: Colletotrichum orbiculare, component A alone
Description: as §2, §3, §4, §5

[10] = Phakopsora pachyrhizi, foliar, read-out: Observed Activity (%) (% of untreated) against Phakopsora pachyrhizi
[11] = Phakopsora pachyrhizi, foliar, 4.5 g/ha, read-out: Observed Activity (%) (% of untreated) against Phakopsora pachyrhizi
[12] = 0.1 ppm, read-out: Activity (%) A

Compound	pest or weed control at 200 ppm [1]	pest or weed control at 67 ppm [2]	inhibition of growth at 6.7 ppm [3]	melting point	pest or weed control at 200 ppm [4]	other results
CCC(C)c1ccn(-c2ccc(C)c(O/C(=C\OC)C(=O)OC)c2)n1 (stereo not shown) [X.02, methyl (Z)-3-methoxy-2-[2-methyl-5-(3-sec-butylpyrazol-1-yl)phenoxy]prop-2-enoate]	≥ 80%	≥ 80%	≥ 80%	110 to 113 °C		
CO/C=C(\Oc1cc(-n2ccc(OC(C)C)n2)ccc1C)C(=O)OC [X.03, methyl (Z)-2-[5-(3-isopropoxypyrazol-1-yl)-2-methyl-phenoxy]-3-methoxy-prop-2-enoate]	≥ 80%	≥ 80%	≥ 80%	94 to 97 °C	≥ 80%	
CO/C=C(\Oc1cc(-n2ccc(C3CCC3)n2)ccc1C)C(=O)OC [X.04, methyl (Z)-2-[5-(3-cyclobutylpyrazol-1-yl)-2-methyl-phenoxy]-3-methoxy-prop-2-enoate]	≥ 80%	≥ 80%	≥ 80%	91 to 94 °C	≥ 80%	
CO/C=C(\Oc1cc(-n2ccc(CC(C)C)n2)ccc1C)C(=O)OC [X.05, methyl (Z)-2-[5-(3-isobutylpyrazol-1-yl)-2-methyl-phenoxy]-3-methoxy-prop-2-enoate]	≥ 80%	≥ 80%	≥ 80%	76 to 80 °C	≥ 80%	
CO/C=C(\Oc1cc(-n2ccc(C3CC3)n2)ccc1C)C(=O)OC [X.07, methyl (Z)-2-[5-(3-cyclopropylpyrazol-1-yl)-2-methyl-phenoxy]-3-methoxy-prop-2-enoate]	≥ 80%	≥ 80%	≥ 80%	115 to 118 °C	≥ 80%	
CO/C=C(\Oc1cc(-n2ccc(C(F)(F)F)n2)ccc1C)C(=O)OC [X.08, methyl (Z)-3-methoxy-2-[2-methyl-5-[3-(trifluoromethyl)pyrazol-1-yl]phenoxy]prop-2-enoate]	≥ 80%	≥ 80%	≥ 80%	154 to 156 °C		inhibition at 0.00625 ppm ([5]; Zymoseptoria tritici, 0.00625 ppm, 100-0 scale): 0%; inhibition at 0.025 ppm ([5]; Zymoseptoria tritici, 0.025 ppm, 100-0 scale): 70%; inhibition at 0.03 ppm ([5]; Zymoseptoria tritici, 0.03 ppm, 100-0 scale, read-out: Activity (%) A): 50%; inhibition at 0.1 ppm ([5]; Zymoseptoria tritici, 0.1 ppm, 100-0 scale, read-out: Activity (%) A): 70%; Activity (%) A ([5]; 0.025 ppm, 100-0 scale): 90%; inhibition at 2.25 g/ha [6, 10]: 1%; inhibition at 4.5 g/ha [6, 11]: 10%; Observed Activity (% of untreated) against Phakopsora pachyrhizi ([6]; 18 g/ha): 38% and 77%; inhibition at 0.00625 ppm ([7]; 0.00625 ppm): 0%; inhibition at 0.025 ppm ([7]; 0.025 ppm): 70%; inhibition at 0.03 ppm ([7]; 0.03 ppm, read-out: Activity (%) A): 70%; inhibition at 0.05 ppm ([7]; 0.05 ppm): 90%; inhibition at 0.1 ppm [7, 12]: 70%; inhibition at 0.00625 ppm ([8]; 0.00625 ppm): 0%; inhibition at 0.025 ppm ([8]; 0.025 ppm): 70%; inhibition at 0.03 ppm ([8]; 0.03 ppm): 70%; inhibition at 0.03 ppm ([9]; 0.03 ppm): 0%; inhibition at 0.1 ppm [9, 12]: 0%
CCCc1cnn(-c2ccc(C)c(O/C(=C\OC)C(=O)OC)c2)n1 [X.09, methyl (Z)-3-methoxy-2-[2-methyl-5-(4-propyltriazol-2-yl)phenoxy]prop-2-enoate]	≥ 80%	≥ 80%	≥ 80%		≥ 80%	inhibition at 0.0025 ppm ([5]; Zymoseptoria tritici, 72 h, 0.0025 ppm): 70%; inhibition at 0.005 ppm ([5]; Zymoseptoria tritici, 72 h, 0.005 ppm): 90%; inhibition at 2.25 g/ha [6, 10]: 34%; inhibition at 4.5 g/ha ([6]; Phakopsora pachyrhizi, foliar, 4.5 g/ha, read-out: Observed Activity (% of untreated) against Phakopsora pachyrhizi): 94%; inhibition at 4.5 g/ha [6, 11]: 95%; inhibition at 9 g/ha ([6]; Phakopsora pachyrhizi, foliar, 9 g/ha, read-out: Observed Activity (% of untreated) against Phakopsora pachyrhizi): 97%; inhibition at 18 g/ha ([6]; Phakopsora pachyrhizi, foliar, 18 g/ha, read-out: Observed Activity (% of untreated) against Phakopsora pachyrhizi): 97%; Observed Activity (% of untreated) against Phakopsora pachyrhizi ([6]; 4.5 g/ha): 93% and 81% and 82%; inhibition at 0.0025 ppm ([7]; 0.0025 ppm): 70%; inhibition at 0.005 ppm ([7]; 0.005 ppm): 90%; inhibition at 0.0025 ppm ([8]; 0.0025 ppm): 50%; inhibition at 0.005 ppm ([8]; 0.005 ppm): 90%
CO/C=C(\Oc1cc(-n2ncc(C3CC3)n2)ccc1C)C(=O)OC [X.11, methyl (Z)-2-[5-(4-cyclopropyltriazol-2-yl)-2-methyl-phenoxy]-3-methoxy-prop-2-enoate]	≥ 80%	≥ 80%	≥ 80%		≥ 80%	
CO/C=C(\Oc1cc(-n2ncc(C(C)C)n2)ccc1C)C(=O)OC [X.12, methyl (Z)-2-[5-(4-isopropyltriazol-2-yl)-2-methyl-phenoxy]-3-methoxy-prop-2-enoate]	≥ 80%	≥ 80%	≥ 80%		≥ 80%	
